Experimental data taken from ChEMBL document CHEMBL1201862, “PubChem BioAssay data set” (2004).
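Cultured in 96-well plates, cells were exposed to test compound for 48 hours across five concentrations. GI50 is the concentration that inhibits growth by half.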 Active and inactive are the calls of the source. Rule as the data show it: active = GI50 up to about 1.1 µM and inactive = higher.

Assays:
Experiment in all cases: NCI-60 cell line screen, 48 h
[1] = test system: HCT-15
[2] = test system: Hs-578T
[3] = test system: NCI-H23
[4] = test system: HOP-92
[5] = test system: NCI/ADR-RES
[6] = test system: UACC-257
[7] = test system: OVCAR-4
[8] = test system: MOLT-4
[9] = test system: BT-549
[10] = test system: LOX IMVI
[11] = test system: HCC 2998
[12] = test system: SW-620
[13] = test system: SNB-75
[14] = test system: SF-268
[15] = test system: ACHN
[16] = test system: UO-31
[17] = test system: IGROV-1
[18] = test system: DU-145
[19] = test system: SK-OV-3
[20] = test system: M14
[21] = test system: HCT-116
[22] = test system: TK-10
[23] = test system: A549
[24] = test system: SNB-19
[25] = test system: Malme-3M
[26] = test system: MDA-MB-231
[27] = test system: SK-MEL-28
[28] = test system: HT-29
[29] = test system: PC-3
[30] = test system: NCI-H460
[31] = test system: OVCAR-5
[32] = test system: RPMI-8226
[33] = test system: NCI-H226
[34] = test system: SK-MEL-2
[35] = test system: HL-60
[36] = test system: CAKI-1
[37] = test system: SF-539
[38] = test system: OVCAR-3
[39] = test system: NCI-H522
[40] = test system: SK-MEL-5
[41] = test system: K562
[42] = test system: COLO 205
[43] = test system: MDA-N
[44] = test system: 786-0
[45] = test system: CCRF-CEM
[46] = test system: T47D
[47] = test system: A498
[48] = test system: U-251
[49] = test system: MCF7
[50] = test system: SR
[51] = test system: RXF 393
[52] = test system: KM12
[53] = test system: UACC-62
[54] = test system: OVCAR-8
[55] = test system: SF-295
[56] = test system: HOP-62
[57] = test system: EKVX
[58] = test system: SN12C
[59] = test system: MDA-MB-435

Measured: GI50

O=c1cc(NNc2cccc(Cl)c2)[nH]c(=O)[nH]1
inactive: [2] > 100 µM | [3] 59.8 µM | [4] 18.5 µM | [5] > 100 µM | [6] 44.3 µM | [7] > 100 µM | [8] 19.8 µM | [9] > 100 µM | [10] 15.4 µM | [11] 53 µM | [12] 18.1 µM | [13] 88.5 µM | [14] > 100 µM | [15] 38.9 µM | [16] 18.8 µM | [17] > 100 µM | [18] 72.3 µM | [19] > 100 µM | [20] 16.7 µM | [21] 17.9 µM | [22] 20.8 µM | [23] > 100 µM | [24] 46.3 µM | [25] 16.3 µM | [26] 17.9 µM | [27] 95.9 µM | [28] 80.2 µM | [29] 75.3 µM | [30] > 100 µM | [31] 77.4 µM | [32] 20.3 µM | [33] > 100 µM | [34] 42.4 µM | [35] 19.5 µM | [36] 19.1 µM | [37] > 100 µM | [38] 17.3 µM | [39] 17.5 µM | [40] 51.1 µM | [41] 29 µM | [42] 42.1 µM | [43] 73.8 µM | [44] 16.2 µM | [45] 21.6 µM | [46] > 100 µM | [47] 42.2 µM | [48] > 100 µM | [49] 1.88 µM | [50] 4.29 µM | [51] > 100 µM | [52] 45.5 µM | [53] 31.6 µM
17.1 µM: [1]

CC(C)C1=C(O)C(=O)C2=C(C1=O)C(O)CC1C(C)(C)CCCC21C (centres undefined)
inactive: [2] 3.88 µM | [3] 1.79 µM | [4] 3.61 µM | [54] 5.36 µM | [6] 11.3 µM | [7] 14.6 µM | [8] 25.8 µM | [9] 8.55 µM | [10] 25.1 µM | [11] 3.58 µM | [12] 3.52 µM | [55] 21.7 µM | [13] 30.2 µM | [14] 6 µM | [15] 3.85 µM | [16] 5.09 µM | [17] 15.8 µM | [18] 8.3 µM | [56] 7.35 µM | [57] 6.56 µM | [19] 15 µM | [20] 3.92 µM | [21] 4.26 µM | [22] 14.5 µM | [23] 4.56 µM | [58] 7.26 µM | [24] 5.38 µM | [25] 3.87 µM | [26] 2.84 µM | [27] 13.3 µM | [28] 22.1 µM | [29] 10.2 µM | [30] 2.88 µM | [31] 20.4 µM | [32] 4.65 µM | [34] 2.84 µM | [35] 14.9 µM | [36] 8.05 µM | [37] 16.9 µM | [38] 11.4 µM | [39] 21.6 µM | [40] 2.43 µM | [41] 6.56 µM | [42] 12.8 µM | [43] 2 µM | [44] 9.2 µM | [45] 6.71 µM | [59] 3.4 µM | [47] 14.3 µM | [48] 4.8 µM | [49] 5.87 µM | [50] 4 µM | [51] 2.14 µM | [52] 5.45 µM | [53] 2.67 µM
3.71 µM: [1]
